Test results taken from patent publication US4950658A, “Method of medical treatment of Alzheimer's disease” (priority 1988, dated 1990).

Experiments:
acetylcholine [1] = assay: Acetylcholine levels in rat brain after one or two consecutive administrations; assay type: in vivo
Text: The second administration of the drugs was timed so as to allow acetylcholine levels to return to approximately (+12%) control levels and the concentration of the drug was the highest that would allow 100% survival.

[2] = Side effects of cholinesterase inhibitors in rats; design: animals with facial clonus / animals with sedation: dose or concentration left out as unconfirmed
[3] = Side effects in Alzheimer's disease patients on metrifonate; assay type: in vivo
Protocol: (§1) Patients were tested using the Alzheimer's Disease Assessment Scale (ADAS) (Rosen et al 1984), Mini Mental State Examination (Folstein et al 1975), a Clincial Global Assessment Scale (Guy 1973) and a rating scale for side effects. A laboratory battery to assess hematopoietic, hepatic, urinary and cardiac status, physical examination, vital signs and measurement of blood cholinesterase activities were completed. Patients were then given in a single oral dose under open conditions metrifonate 2.5 mg/Kg and 5 mg/Kg on successive weeks and reassessed 1, 4 and 7 days after the 2.5 mg/Kg dose and 4 and 7 days after the 5 mg/Kg dose. Patients were next administered metrifonate one month later after a second baseline assessment (blood cholinesterase have returned to initial values by 1 month) and were given on four successive weeks 7.5 mg/Kg, 7.5 mg/Kg, 15 mg/Kg and 15 mg/Kg and assessed 7 days after each dosing prior to administration of the next dose. At each assessment all the cognitive and medical studies at baseline were repeated.
(§2) In sum we have successfully administered metrifonate to 15 patients (4-16 weeks of once weekly drug) without the appearance of side effects except for nausea and vomiting in four patients that has not reoccurred following administration of the highest dose as a divided dose over two days. […]

acetylcholinesterase = settings: cited from earlier work
[4] = system: brain acetylcholinesterase; settings: 125 mg/kg intraperitoneal, within 15 minutes; cited from earlier work
acetylcholine [5] = settings: 125 mg/kg intraperitoneal, simultaneous with inhibition; cited from earlier work
brain cholinesterase [6] = assay: Cholinesterase activity in rat after intramuscular inhibitor; assay type: in vivo; settings: for activity of cholinesterase: 80 mg/Kg intramuscular
plasma cholinesterase = assay: Plasma cholinesterase inhibition by naled, DDVP and metrifonate; assay type: biochemical
Text: Unlike metrifonate, which acts as a slow release formulation, naled degrades rapidly in vivo to the metabolite DDVP. […] The slightly lower values in inhibition observed for naled than that of DDVP can be attributed to its higher molecular weight. […] All the cholinesterase inhibition activity of naled is a result of the formation of DDVP.

[7] = in vivo; cited from earlier work
[8] = system: Alzheimer's disease patients; assay: Open metrifonate study in Alzheimer's disease patients, ADAS; assay type: in vivo
Protocol: We have administered metrifonate to 15 Alzheimer's disease patients. Patients were diagnosed using Diagnostic Statistical Manual IIIR criteria. […] Patients with moderately severe Alzheimer's disease were accepted to explore for effects of severity on drug response.
as §1
To identify responders we used the criterion of an improvement of 4 points on the ADAS. Among 5 patients who have received all four dosage levels we have identified 5 as responders, among 10 patients who have received both the 2.5 and 5 mg/Kg doses we have identified 5 responders for a total of 10 responders identified. […] The longest term patients (n=5) were on metrifonate for a total of four months.
In the completed patients the preferred dose, defined as maximum improvement without interfering side effects, was identified. Best doses ranged from 2.5 to 7.5 mg/Kg. Lower doses of about 0.5 mg/Kg were also operable.

acetylcholine [9] = assay: Acetylcholine levels in rat brain regions after intracerebroventricular metrifonate; assay type: in vivo; settings: 2.5 mg intracerebroventricularly
Protocol: (§3) Levels of acetylcholine increased by 45% at 45 min. then returned to normal by 120 min. When metrifonate (2.5 mg) was given intracerebroventricularly the activity of cholinesterase decreased in the injected side at 30 min. to 20% in hippocampus, 22% in the medulla, 50% in the cerebellum, 58% in the striatum and 72% in the cortex.

cholinesterase [10] = assay: Cholinesterase activity in rat brain regions after intracerebroventricular metrifonate; assay type: in vivo; settings: 2.5 mg intracerebroventricularly, injected side, 30 min
Protocol: as §3

[11] = system: plasma acetycholinesterase; settings: in vivo; cited from earlier work
[12] = system: cholinesterase and acetylcholinesterase in blood; assay: Blood cholinesterase activities in Alzheimer's disease patients on metrifonate; assay type: in vivo; settings: 15 patients, 4-16 weeks of once weekly drug
Protocol: as §1, §2

[13] = system: 3H-choline accumulation and K+ evoked acetylcholine release; assay: 3H-choline accumulation and K+ evoked acetylcholine release in vitro; settings: concentration giving 100% inhibition of cholinesterase in vitro; after each of two doses
Alzheimer patients = settings: i.v. administration; cited from earlier work
acetylcholine [14] = settings: cortex, striatum, hippocampus and midbrain; cited from earlier work
acetylcholine [15] = settings: acute administration, all brain regions; cited from earlier work
[16] = with loss of enzymatic inhibitory activity; cited from earlier work
brain cholinesterase [17] = settings: cited from earlier work
cholinesterase [18] = settings: when normal acetylcholine levels are regained (within 24 hours) after acute administration; cited from earlier work
[19] = physostigmine i.m., tetrahydroaminoacridine 15 mg/Kg
[20] = tetrahydroaminoacridine 15 mg/Kg

Structure (SMILES): COP(=O)(OC)C(O)C(Cl)(Cl)Cl (stereo not drawn) [metrifonate]
- time of return of acetylcholine to normal (acetylcholine [1]; 80 mg/Kg intramuscular): ≤ 120 min
- increase in levels of acetylcholine (acetylcholine [1]; 80 mg/Kg intramuscular, 45 min): 45%
- time at which acetylcholine returned practically to control levels (acetylcholine [1]; first administration): 90 min
- time at which the peak value of acetylcholine was reached (acetylcholine [1]; first administration): 45 min
- increase in acetylcholine levels after the first administration (acetylcholine [1]; rat brain, first of two consecutive administrations): 45%
- duration of the acetylcholine increase after the second administration (acetylcholine [1]; second consecutive administration): 120 min
- increase in acetylcholine after the second administration (acetylcholine [1]; second consecutive administration, highest dose allowing 100% survival): 33%
- seizures ([2]; metrifonate 80 mg/Kg 1M): did not occur
- survival ([2]; metrifonate 80 mg/Kg 1M): all animals survived
- time at which symptoms developed after the injection ([2]; metrifonate 80 mg/Kg 1M): 20 to 35 min
- side effects compared with the other two drugs ([2]; metrifonate 80 mg/Kg 1M vs physostigmine and tetrahydroaminoacridine): less frequent and less severe
- patients with nausea and vomiting ([3]; 15 patients, 4-16 weeks of once weekly drug): four
- adverse, side or toxic effects ([3]; up to 15 mg/Kg body weight/week, except occasional nausea and vomiting): have not occurred
- activity of the precursor itself against acetylcholinesterase (acetylcholinesterase): not active
- inhibition of brain acetylcholinesterase [4]: 70%
- change in acetylcholine (acetylcholine [5]): increase
- activity of cholinesterase (brain cholinesterase [6]; 30 min): 26%
- activity of cholinesterase (brain cholinesterase [6]; 180 min): 50%
- activity of cholinesterase (brain cholinesterase [6]; 360 min): 74%
- peak cholinesterase inhibition (brain cholinesterase [6]; at the doses used): 85%
- time of peak cholinesterase inhibition (brain cholinesterase [6]; at the doses used): 30 min
- increase necessary to obtain the same amount of plasma cholinesterase inhibition (plasma cholinesterase; relative to naled/DDVP): 10 fold
- absorption in humans [7]: rapidly absorbed
- tolerance in humans [7]: relatively few side effects
- effect of the highest dose on cognitive performance ([8]; 15 mg/KG): deterioration in cognitive performance
- clinical effect of once weekly dosing ([8]; 0.5 to 15 mg/Kg body weight/week, significant number of Alzheimer's disease patients): improvement in memory, cognition and other behaviors
- total of responders identified ([8]; 15 patients): 10
- effect of lower doses ([8]; about 0.5 mg/Kg): operable
- change on the ADAS in responders ([8]; all responders): ≥ 9
- responders (improvement of 4 points on the ADAS) ([8]; among 5 patients who received all four dosage levels): 5
- responders (improvement of 4 points on the ADAS) ([8]; among 10 patients who received both the 2.5 and 5 mg/Kg doses): 5
- maximal level of acetylcholine, hippocampus and cortex (acetylcholine [9]; 45 min): 160 % of baseline
- peak level of acetylcholine, striatum (acetylcholine [9]; 60 min): 155 % of baseline
- activity of cholinesterase, cerebellum (cholinesterase [10]): 50%
- activity of cholinesterase, cortex (cholinesterase [10]): 72%
- activity of cholinesterase, hippocampus (cholinesterase [10]): 20%
- activity of cholinesterase, medulla (cholinesterase [10]): 22%
- activity of cholinesterase, striatum (cholinesterase [10]): 58%
- half life of cholinesterase inhibition [11]: 120 to 140 h
- inhibition of cholinesterase and acetylcholinesterase in blood [12]: up to 80%

Structure (SMILES): COP(=O)(OC)OC(Br)C(Cl)(Cl)Br (stereo not drawn) [naled, 1,2-dibromo-2,2-dichlorvoethyl dimethyl phosphate]
- plasma cholinesterase inhibition compared with DDVP (plasma cholinesterase): parallel to that by DDVP
- inherent cholinesterase inhibition activity (plasma cholinesterase; conclusion from comparison with DDVP): without inherent cholinesterase inhibition activity of its own

Structure (SMILES): Nc1c2c(nc3ccccc13)CCCC2 [tetrahydroaminoacridine]
- animals with fasciculations [2, 19]: 25%
- animals with tremor [2, 19]: 25%
- animals with facial and forelimb clonus [2, 20]: 10%
- animals with generalized seizures [2, 20]: 4%
- animals with increased salivation [2, 20]: 60%
- animals with lacrimation [2, 20]: 40%
- animals with pronounced splay [2, 20]: 35%
- interval between generalized seizures [2, 20]: 5 to 10 min

Structure (SMILES): CNC(=O)Oc1ccc2c(c1)[C@]1(C)CCN(C)[C@@H]1N2C [physostigmine]
- 3H acetylcholine release [13]: significantly more
- animals with splay of hind limbs ([2]; physostigmine 300 mg/Kg i.m.): 25%
- animals with facial clonus ([2]; physostigmine i.m.): 15%
- animals with sedation ([2]; physostigmine i.m.): 10%
- animals with fasciculations [2, 19]: 60%
- animals with tremor [2, 19]: 30%
- studies that have shown improvement in memory (Alzheimer patients): 6 out of 9

Structure (SMILES): COP(=O)(OC)OC=C(Cl)Cl [DDVP, 2,2 dichlorovinyl dimethyl phosphate]
- time to peak accumulation of acetylcholine (acetylcholine [14]): ≤ 5 min
- time to regain normal acetylcholine levels (acetylcholine [15]): ≤ 24 h
- inactivation by oxidative metabolism [16]: rapidly inactivated
- time to become active as inhibitor of brain cholinesterase (brain cholinesterase [17]; in vivo): one
- inhibition of brain cholinesterase (brain cholinesterase [17]; maximal (up to)): up to 96%
- cholinesterase still inhibited (cholinesterase [18]): 35%
